Source: patent US6686334B2, “Use of inhibitors of protein kinase C epsilon to treat pain” (Regents of the University of California, priority 1998, dated 2004)
Entries after “also recorded” stand apart in the source; their conditions may differ. Like-named read-outs stand apart in the source and are kept apart here.

Legend:
[1] = system: PGE2-induced hyperalgesia; test: PGE2-induced mechanical hyperalgesia, paw withdrawal threshold; format: in vivo, rat; conditions: PGE2 100 ng; for Effect on PGE2-induced hyperalgesia: rat hindpaw, mechanical stimulus
Description: The roles of PKC, protein kinase A (“PKA”) and the μ-opioid receptor in mediating epinephrine-induced hyperalgesia were assessed by measuring the effects of: Rp-adenosine 3′, 5′-cyclic monophosphate (“Rp-cAMPs”) and WIPTIDE, both inhibitors of PKA; SQ22536, an inhibitor of adenylyl cyclase, an enzyme activated by PKA; bisindolymaleimide (“BIM”), a nonselective inhibitor of PKC isozymes; and [D-Ala^2, N-Me-Phe^4, Gly^5-ol]-enkephalin (“DAMGO”), μ-opioid receptor agonist. The dose for each inhibitor was 1 μg, except for WIPTIDE, which was administered in a 100 ng dose. DAMGO was co-injected with epinephrine whereas the other inhibitors were applied 15 minutes prior to epinephrine injection.
For mechanical nociceptive testing, the nociceptive flexion reflex was quantified using an Ugo Basile analgesymeter that applies a constantly increasing force measured in grams (Stoelting, Chicago, Ill.; K. O. Aley, J. D. Levine, J. Neurosci. 17, 8018-23 (1997)). The mean basal mechanical threshold for rats used in these experiments was 105.3+/−2.8 grams. The effects of hyperalgesia-inducing agents epinephrine (100 ng) and PGE2 (100 ng) on mechanical nociceptive thresholds were determined by measuring paw withdrawal frequencies at 15, 20, and 25 minutes after administration of the hyperalgesic agent and then calculating the mean of these three readings.

[2] = system: tetrodotoxin-resistant sodium current (TTX-RINa); format: cell-based, rat; conditions: for Effect on epinephrine-induced potentiation of TTX-RINa: 1 μM epinephrine, propranolol 2 μM, phentolamine 5 μM, Rp-cAMPs 100 μM, BIM 100 μM
[3] = system: epinephrine-induced hyperalgesia; test: Epinephrine-induced mechanical hyperalgesia, paw withdrawal threshold (Ugo Basile Analgesimeter); format: in vivo, rat; conditions: for Percentage decrease in nociceptive threshold in response to epinephrine: epinephrine 100 ng, DAMGO, SQ22536, BIM, Rp-cAMPs 1 μg, WIPTIDE 0.1 μg, larger value = more hyperalgesia; for Effect on epinephrine-induced hyperalgesia: rat hindpaw, intradermal, mechanical stimulus
Description: The roles of PKC, protein kinase A (“PKA”) and the μ-opioid receptor in mediating epinephrine-induced hyperalgesia were assessed by measuring the effects of: Rp-adenosine 3′, 5′-cyclic monophosphate (“Rp-cAMPs”) and WIPTIDE, both inhibitors of PKA; SQ22536, an inhibitor of adenylyl cyclase, an enzyme activated by PKA; bisindolymaleimide (“BIM”), a nonselective inhibitor of PKC isozymes; and [D-Ala^2, N-Me-Phe^4, Gly^5-ol]-enkephalin (“DAMGO”), μ-opioid receptor agonist. The dose for each inhibitor was 1 μg, except for WIPTIDE, which was administered in a 100 ng dose.

[4] = system: isoproterenol-induced hyperalgesia; test: Isoproterenol-induced mechanical hyperalgesia, paw withdrawal threshold; format: in vivo, rat; conditions: for Effect on isoproterenol-induced hyperalgesia: rat hindpaw, intradermal
[5] = system: prolonged PGE2-induced hyperalgesia; test: Prolonged hyperalgesia in carrageenan-sensitized rats (chronic inflammatory pain model); format: in vivo, rat; conditions: 1 μg at the same time as carrageenan; PGE2 72 or more hours later
Source text: In order to investigate the role, if any, of PKCε in chronic inflammatory pain, the following model system for chronic inflammatory pain was developed. Rats received intradermal hind paw injections of carrageenan, an inflammatory agent. […] This was considered an acute response to the carrageenan-induced inflammation. Although administration of Prostaglandin E2 (“PGE2”), 5-hydroxytryptamine (“5-HT,” serotonin) or CGS-21680 (an adenosine A2-selective receptor agonist) normally causes untreated rats (that is, rats that have not received carrageenan injections) to experience hyperalgesia lasting up to 6 hours, the hyperalgesia experienced by carrageenan-sensitized rats following administration of any one of these substances lasted up to 24 hours.
The prolonged PGE2-induced hyperalgesia normally seen in carrageenan-sensitized rats was inhibited by administration of BIM or εV1-2.
To examine whether protein kinase C modulates the processes by which a brief inflammatory event causes prolonged hyperalgesia many days later, rats received carrageenan and 1 μg BIM injections at the same time. Hyperalgesia was measured 72 hours later, when the rats were treated PGE2. […]

[6] = system: carrageenan-induced hyperalgesia; test: Carrageenan-induced acute hyperalgesia, mechanical stimuli; format: in vivo, rat; conditions: 1 μg injected at the same time as carrageenan
Description: The acetic acid writhing experiments reported in Example 3 indicate that PKCε contributes to inflammatory pain. To investigate whether PKCε mediates hyperalgesia induced by other inflammatory agents, rats received intradermal 10 μl injections of a 1% solution of carrageenan, a potent irritant (Ferreira, S. H. et al, Nature 334, 698-700 (1988)) and three and a half hours later, the rats received no treatment (n=12; labeled “Car-4” on FIG. 13) or intradermal injections of sterile water followed by intradermal injections of either 1 μg εV1-2, a PKCε inhibitory peptide (n=6; labeled “εV” on FIG. 13), or 1 μg S-VεV1-2, a scrambled version of the εV1-2 peptide (n=6; labeled “S-εV” on FIG. 13).
To examine whether protein kinase C modulates the processes by which a brief inflammatory event causes prolonged hyperalgesia many days later, rats received carrageenan and 1 μg BIM injections at the same time. Hyperalgesia was measured 72 hours later, when the rats were treated PGE2. […] Therefore, administration of an inhibitor of PKC either at approximately the same time as the inflammatory agent giving rise to chronic, prolonged hyperalgesia or at about the same time as the hyperalgesia-inducing stimulus can lessen such chronic hyperalgesia.

[7] = system: diabetes-induced hyperalgesia; test: Streptozotocin diabetes-induced hyperalgesia, mechanical stimuli; format: in vivo, rat; conditions: 1 μg intradermal after sterile water, four weeks after streptozotocin 70 mg/kg
Description: Persons with uncontrolled or poorly controlled diabetes frequently experience hyperalgesia. The role of PKCε in diabetic neuropathy was examined in a model of diabetes in which male Sprague-Dawley rats receive subcutaneous injection of streptozotocin (70 mg/kg), a pancreatic β-cell toxin. These rats display hyperglycemia and glucosuria within 24 hours after the injection and show decreased nociceptive thresholds in response to mechanical stimuli administered by Ugo Basile analgesymeter in the hind paw after one week (Ahlgren, S. C. et al, J. Neurophysiology, 68, 2077-2085 (1992); Ahlgren, S. C. and Levine, J. D., Neuroscience 52, 1049-1055 (1993)). Four weeks after the streptozotocin injection, each rat received no treatment (n=8) or an intradermal injection of sterile water followed by a intradermal injections of (1) 1 μg bisindolymaleimide, a protein kinase C inhibitor (n=4; labeled “BIM” on FIG. 12B), (2) 1 μg εV1-2, a PKCε inhibitory peptide (n=8; labeled “PKCεI” on FIG. 12B), or (3) 1 μg S-VεV1-2, a scrambled version of the εV1-2 peptide (n=4; labeled “PCKεI SCR” on FIG. 12B) and were subsequently exposed to mechanical stimuli.

wild-type mice = test: von Frey hair paw withdrawal frequency in mice; format: in vivo, mouse; conditions: 100 ng intraplantar, wild-type mice, 4, 6.9 or 14.8 grams
Description: Mechanical, thermal and chemical nociception were evaluated in wild-type and PKCε-mutant mice. For both wild-type (n=8) and PKCε-mutant (n=8) mice, the basal mechanical nociceptive threshold was measured as the frequency at which mice withdrew their paws after being poked in the hindpaw with a von Frey Hair (“VFH”; Stoelting Co.) applying a force of 4, 6.9 or 14.8 grams.

[8] = system: PGE2-induced hyperalgesia; conditions: PGE2 100 ng; inhibitor 1 μg; data from Khasar 1995 or Taiwo and Levine 1991; cited from earlier work
[9] = system: vincristine-induced hyperalgesia; test: Vincristine-induced hyperalgesia, mechanical stimuli (Ugo Basile analgesymeter); format: in vivo, rat; conditions: vincristine 100 μg/kg intravenously daily, after the second day
Description: (§1) Humans undergoing chemotherapy frequently experience hyperalgesia. Vincristine is a chemotherapeutic drug known to cause such hyperalgesia, and a rat model of vincristine-induced hyperalgesia was established as follows. Vincristine (100 μg/kg in saline; Sigma Chemical Catalog) was administered intravenously daily to each of 32 rats over a period of two weeks.
To determine whether administration of an inhibitor of PKCε would lessen vincristine-induced hyperalgesia in the rat model described above, on the 13th day of vincristine treatment, rats received no treatment (n=16) or intradermal injections of sterile water followed by intradermal injections of either 1 μg εV1-2, a PKCε inhibitory peptide (n=8; labeled “PKCεI” on FIG. 12A), or 1 μg S-VεV1-2, a scrambled version of the εV1-2 peptide (n=8; labeled “PCKεI SCR” on FIG. 12A), 20-30 minutes before administration of a mechanical stimulus.

[10] = Rotorod analysis of motor deficits; format: in vivo, rat; conditions: vincristine 100 μg/kg intravenously daily
Description: as §1

[11] = system: PGE2-induced hyperalgesia; conditions: earlier studies; cited from earlier work
[12] = system: formalin-induced hyperalgesia; conditions: earlier studies; cited from earlier work
[13] = similar dose, normal rat, earlier studies; cited from earlier work
[14] = system: small diameter DRG neurons; test: Current-clamp (perforated-patch whole-cell) excitability of cultured DRG neurons; format: cell-based, rat
[15] = after 1 μg epinephrine injection
[16] = 10 μM propranolol 30 seconds prior to and with 1 μM epinephrine

## CN(C)CCCn1cc(C2=C(c3c[nH]c4ccccc34)C(=O)NC2=O)c2ccccc21 [BIM, bisindolymaleimide I]
[1]; BIM 1 μg, WIPTIDE 0.1 μg
  Percentage decrease in nociceptive threshold in response to PGE2: 33.4 ± 4.1%
[1]
  Effect on PGE2-induced hyperalgesia: no effect
[2]
  Effect on epinephrine-induced potentiation of TTX-RINa: significantly decreased
[3]
  Percentage decrease in nociceptive threshold in response to epinephrine: 4.6 ± 2.1 %
  Effect on epinephrine-induced hyperalgesia: inhibits epinephrine-induced hyperalgesia to a similar extent as εV1-2
[4]; isoproterenol 100 ng, BIM 1 μg, WIPTIDE 0.1 μg
  Percentage decrease in nociceptive threshold in response to isoproterenol: 7.1 ± 2.4 %
[4]
  Effect on isoproterenol-induced hyperalgesia: significantly attenuated
[5]
  Effect on prolonged hyperalgesia on PGE2 treatment after carrageenan: attenuated
[6]
  Effect on acute hyperalgesia induced by carrageenan: attenuated
[7]
  Effect on diabetes-induced decrease in nociceptive threshold: somewhat greater reduction in the percentage decrease in nociceptive threshold than PKCε I; also recorded: markedly reduced

## CNC[C@H](O)c1ccc(O)c(O)c1 [Epinephrine, epinephrine]
[2]; epinephrine 1 μM
  Effect on TTX-RINa: marked potentiation
[3]; [15]
  Duration of hyperalgesia: approximately 2 hours
  Onset latency of hyperalgesia (significant): 2 min
  Time to peak hyperalgesic effect: ≤ 5 min
[3]; intradermal 1 ng to 1 μg, dorsal hindpaw
  Effect on paw withdrawal threshold: dose-dependent decrease
wild-type mice
  Percent-withdrawal response to VFH stimulus: dramatically increased

## CC(C)NCC(O)c1ccc(O)c(O)c1 (stereo not shown) [Isoproterenol, isoproterenol]
[4]; intradermal injection
  Hyperalgesia produced in the absence of epinephrine: dose-dependent hyperalgesia
[4]; isoproterenol 100 ng alone
  Percentage decrease in nociceptive threshold in response to isoproterenol alone: 25.8 ± 0.9%

## CCCCC[C@H](O)/C=C/[C@H]1[C@H](O)CC(=O)[C@@H]1C/C=C\CCCC(=O)O [PGE2, prostaglandin E2]
wild-type mice
  Percent-withdrawal response to VFH stimulus: dramatically increased

## Nc1ncnc2c1ncn2[C@@H]1O[C@@H]2CO[P@@](O)(=S)O[C@H]2[C@H]1O [Rp-cAMPs, Rp-adenosine 3′, 5′-cyclic monophosphate]
[2]
  Effect on epinephrine-induced potentiation of TTX-RINa: abolished

## Nc1ncnc2c1ncn2C1CCCO1 (stereo not shown) [SQ22536]
[8]
  Percentage decrease in nociceptive threshold in response to PGE2: 10.0 ± 2.9 %
[3]
  Percentage decrease in nociceptive threshold in response to epinephrine: 9.5 ± 2.4 %

## CC[C@]1(O)C[C@H]2CN(CCc3c([nH]c4ccccc34)[C@@](C(=O)OC)(c3cc4c(cc3OC)N(C=O)[C@H]3[C@@](O)(C(=O)OC)[C@H](OC(C)=O)[C@]5(CC)C=CCN6CC[C@]43[C@@H]65)C2)C1 [Vincristine]
[9]
  Effect on mechanical nociceptive thresholds: acute dose-dependent decrease
[10]
  Motor deficits: did not show any significant motor deficits

## COc1ccc2c(c1)c(CC(=O)O)c(C)n2C(=O)c1ccc(Cl)cc1 [indomethacin]
[3]
  Effect on epinephrine-induced hyperalgesia: Neither indomethacin treatment nor sympathectomy had any effect

## Cc1ccc(N(CC2=NCCN2)c2cccc(O)c2)cc1 [phentolamine]
[11]
  Effect on the ability of rolipram to prolong PGE2-induced hyperalgesia: inhibited
[3]
  Effect on epinephrine-induced hyperalgesia: did not significantly affect
[12]
  Effect on formalin-induced hyperalgesia: significantly reversed
[13]
  Effect on basal paw threshold: no effect

## CC(C)NCC(O)COc1cccc2ccccc12 (stereo not shown) [propranolol]
[2]
  Effect on epinephrine-induced potentiation of TTX-RINa: eliminated this potentiation
[14]; [16]
  First-spike latency after epinephrine addition: 233 ± 10 ms
  Spike number after epinephrine addition: 1.3±0.2
[14]; 10 μM propranolol, 1 μM epinephrine
  Effect on epinephrine-induced increase in spike number and decrease in first-spike latency: abolished
[3]
  Effect on epinephrine-induced hyperalgesia: significantly attenuated
[4]
  Effect on isoproterenol-induced hyperalgesia: significantly attenuated

## WIPTIDE
[1]
  Effect on PGE2-induced hyperalgesia: significantly attenuated
[4]
  Effect on isoproterenol-induced hyperalgesia: almost completely abolished
